{"source": "ChEMBL document CHEMBL2073767", "about": "“Novel membrane transporter OCTN1 mediates multispecific, bidirectional, and pH-dependent transport of organic cations” (J Pharmacol Exp Ther, 1999)", "molecules": {"B1": {"name": "Solute carrier family 22 member 4 (Homo sapiens) (protein)", "chain": "MRDYDEVIAFLGEWGPFQRLIFFLLSASIIPNGFNGMSVVFLAGTPEHRCRVPDAANLSSAWRNNSVPLRLRDGREVPHSCSRYRLATIANFSALGLEPGRDVDLGQLEQESCLDGWEFSQDVYLSTVVTEWNLVCEDNWKVPLTTSLFFVGVLLGSFVSGQLSDRFGRKNVLFATMAVQTGFSFLQIFSISWEMFTVLFVIVGMGQISNYVVAFILGTEILGKSVRIIFSTLGVCTFFAVGYMLLPLFAYFIRDWRMLLLALTVPGVLCVPLWWFIPESPRWLISQRRFREAEDIIQKAAKMNNIAVPAVIFDSVEELNPLKQQKAFILDLFRTRNIAIMTIMSLLLWMLTSVGYFALSLDAPNLHGDAYLNCFLSALIEIPAYITAWLLLRTLPRRYIIAAVLFWGGGVLLFIQLVPVDYYFLSIGLVMLGKFGITSAFSMLYVFTAELYPTLVRNMAVGVTSTASRVGSIIAPYFVYLGAYNRMLPYIVMGSLTVLIGILTLFFPESLGMTLPETLEQMQKVKWFRSGKKTRDSMETEENPKVLITAF"}}, "key": {"[1]": {"target": "T1, Solute carrier family 22 member 4 (Homo sapiens, UniProt Q9H015)", "T1 sequence (Q9H015 whole entry)": "B1 chain", "assay": "in vitro", "details": "xenopus laevis, Xenopus laevis oocytes, probe TEA", "description": "TP_TRANSPORTER: inhibition of TEA uptake (TEA: 60 uM, Choline: 5000 uM) in Xenopus laevis oocytes"}, "[2]": {"target": "T1, Solute carrier family 22 member 4", "assay": "TP_TRANSPORTER: inhibition of TEA uptake (TEA: 60 uM, Arginine: 5000 uM) in OCTN1-expressing HEK293 cells", "format": "functional, cell-based", "details": "hek293, 5000 µM"}, "[3]": {"target": "T1, Solute carrier family 22 member 4", "assay": "TP_TRANSPORTER: inhibition of TEA uptake (TEA: 60 uM, PAH: 5000 uM) in Xenopus laevis oocytes", "format": "functional, cell-based", "details": "oocyte"}, "[4]": {"target": "T1, Solute carrier family 22 member 4", "assay": "TP_TRANSPORTER: inhibition of TEA uptake (TEA: 60 uM, D-Carnitine: 1000 uM) in Xenopus laevis oocytes", "format": "functional, cell-based, Oocyte", "design": "scale not given: the % may be the effect or the level left", "details": "probe TEA, read-out: Activity"}, "[5]": {"target": "T1, Solute carrier family 22 member 4", "assay": "TP_TRANSPORTER: uptake in Xenopus laevis oocytes", "format": "functional, cell-based", "details": "oocyte"}, "[6]": {"target": "T1, Solute carrier family 22 member 4", "assay": "TP_TRANSPORTER: inhibition of TEA uptake (TEA: 60 uM, Quinidine: 1000 uM) in Xenopus laevis oocytes", "format": "functional, cell-based, Oocyte", "design": "scale not given: the % may be the effect or the level left", "details": "probe TEA, read-out: Activity"}, "[7]": {"target": "T1, Solute carrier family 22 member 4", "assay": "in vitro", "details": "xenopus laevis, Xenopus laevis oocytes, probe TEA", "remark": "listed apart in the source", "description": "TP_TRANSPORTER: inhibition of TEA uptake (TEA: 60 uM, Nicotine: 1000 uM) in Xenopus laevis oocytes"}, "[8]": {"target": "T1, Solute carrier family 22 member 4", "assay": "TP_TRANSPORTER: inhibition of TEA uptake (TEA: 60 uM, Guanidine: 5000 uM) in Xenopus laevis oocytes", "format": "functional, cell-based, Oocyte", "design": "scale not given: the % may be the effect or the level left", "details": "probe TEA, read-out: Activity"}, "[9]": {"target": "T1, Solute carrier family 22 member 4", "assay": "TP_TRANSPORTER: inhibition of TEA uptake (TEA: 60 uM, Lysine: 5000 uM) in Xenopus laevis oocytes", "format": "functional, cell-based", "details": "oocyte"}, "[10]": {"target": "T1, Solute carrier family 22 member 4", "assay": "in vitro", "details": "xenopus laevis, Xenopus laevis oocytes, probe TEA", "remark": "listed apart in the source"}, "[11]": {"target": "T1, Solute carrier family 22 member 4", "assay": "TP_TRANSPORTER: inhibition of TEA uptake (TEA: 60 uM, PCG: 5000 uM) in Xenopus laevis oocytes", "format": "functional, cell-based", "details": "oocyte"}, "[12]": {"target": "T1, Solute carrier family 22 member 4", "assay": "TP_TRANSPORTER: inhibition of TEA uptake (TEA: 60 uM, Procainamide: 1000 uM) in Xenopus laevis oocytes", "format": "functional, cell-based, Oocyte", "design": "scale not given: the % may be the effect or the level left", "details": "probe TEA, read-out: Activity"}, "[13]": {"target": "T1, Solute carrier family 22 member 4", "assay": "TP_TRANSPORTER: inhibition of TEA uptake (TEA: 60 uM, CER: 1000 uM) in Xenopus laevis oocytes", "format": "functional, cell-based, Oocyte", "design": "scale not given: the % may be the effect or the level left", "details": "probe TEA, read-out: Activity"}, "[14]": {"target": "T1, Solute carrier family 22 member 4", "assay": "TP_TRANSPORTER: inhibition of TEA uptake (TEA: 60 uM, OFLX: 1000 uM) in Xenopus laevis oocytes", "format": "functional, cell-based, Oocyte", "design": "scale not given: the % may be the effect or the level left", "details": "probe TEA, read-out: Activity"}, "[15]": {"target": "T1, Solute carrier family 22 member 4", "assay": "TP_TRANSPORTER: inhibition of TEA uptake (TEA: 60 uM, Spermidine: 5000 uM) in Xenopus laevis oocytes", "format": "functional, cell-based", "details": "oocyte"}, "[16]": {"target": "T1, Solute carrier family 22 member 4", "assay": "TP_TRANSPORTER: inhibition of TEA uptake (TEA: 60 uM, Pyrilamine: 1000 uM) in Xenopus laevis oocytes", "format": "functional, cell-based, Oocyte", "design": "scale not given: the % may be the effect or the level left", "details": "probe TEA, read-out: Activity"}, "[17]": {"target": "T1, Solute carrier family 22 member 4", "assay": "TP_TRANSPORTER: inhibition of TEA uptake (TEA: 60 uM, Quinine: 1000 uM) in Xenopus laevis oocytes", "format": "functional, cell-based", "design": "scale not given: the % may be the effect or the level left", "details": "oocyte"}, "[18]": {"target": "T1, Solute carrier family 22 member 4", "assay": "TP_TRANSPORTER: inhibition of TEA uptake (TEA: 60 uM, L-Carnitine: 1000 uM) in Xenopus laevis oocytes", "format": "functional, cell-based, Oocyte", "design": "scale not given: the % may be the effect or the level left", "details": "probe TEA, read-out: Activity"}, "[19]": {"target": "T1, Solute carrier family 22 member 4", "assay": "TP_TRANSPORTER: inhibition of TEA uptake (TEA: 60 uM, Levofloxacin: 1000 uM) in Xenopus laevis oocytes", "format": "functional, cell-based", "design": "scale not given: the % may be the effect or the level left", "details": "oocyte"}, "[20]": {"target": "T1, Solute carrier family 22 member 4", "assay": "TP_TRANSPORTER: inhibition of TEA uptake (TEA: 60 uM, Verapamil: 1000 uM) in Xenopus laevis oocytes", "format": "functional, cell-based, Oocyte", "design": "scale not given: the % may be the effect or the level left", "details": "probe TEA, read-out: Activity"}, "[21]": {"target": "T1, Solute carrier family 22 member 4", "assay": "TP_TRANSPORTER: inhibition of TEA uptake (TEA: 60 uM, NMN: 5000 uM) in Xenopus laevis oocytes", "format": "functional, cell-based", "details": "oocyte"}, "[22]": {"substrate": "CC[N+](CC)(CC)CC", "assay": "cells, lysate or membranes named"}}, "data": [{"molecule": "C[N+](C)(C)CCO", "note": "[CHOLINE]", "values": [{"measurement": "activity at 5000 µM", "setting": "[1]", "value": 73.2, "unit": "%"}]}, {"molecule": "N=C(N)NCCC[C@H](N)C(=O)O", "note": "[ARGININE]", "values": [{"measurement": "Activity", "setting": "[2]", "value": "is not an inhibitor [-]"}]}, {"molecule": "Nc1ccc(C(=O)NCC(=O)O)cc1", "note": "[AMINOHIPPURIC ACID]", "values": [{"measurement": "Activity", "setting": "[3]", "value": "is not an inhibitor [-]"}]}, {"molecule": "C[N+](C)(C)C[C@@H](O)CC(=O)[O-]", "note": "[D-CARNITINE]", "values": [{"measurement": "activity at 1000 µM", "setting": "[4]", "value": 53.9, "unit": "%"}]}, {"molecule": "C=C[C@H]1C[N@@]2CC[C@H]1C[C@@H]2[C@@H](O)c1ccnc2ccc(OC)cc12", "note": "[QUINIDINE]", "values": [{"measurement": "Activity", "setting": "[5]", "value": "substrate [+]"}, {"measurement": "activity at 1000 µM", "setting": "[6]", "value": 15.2, "unit": "%"}]}, {"molecule": "CN1CCC[C@H]1c1cccnc1", "note": "[NICOTINE]", "values": [{"measurement": "activity at 1000 µM", "setting": "[7]", "value": 71.6, "unit": "%"}]}, {"molecule": "N=C(N)N", "note": "[GUANIDINE]", "values": [{"measurement": "activity at 5000 µM", "setting": "[8]", "value": 89.6, "unit": "%"}]}, {"molecule": "NCCCC[C@H](N)C(=O)O", "note": "[LYSINE]", "values": [{"measurement": "Activity", "setting": "[9]", "value": "is not an inhibitor [-]"}]}, {"molecule": "Clc1cccc(Cl)c1N=C1NCCN1", "note": "[CLONIDINE]", "values": [{"measurement": "activity at 1000 µM", "setting": "[10]", "value": 70.9, "unit": "%"}]}, {"molecule": "CC1(C)S[C@@H]2[C@H](NC(=O)Cc3ccccc3)C(=O)N2[C@H]1C(=O)O", "note": "[PENICILLIN G]", "values": [{"measurement": "Activity", "setting": "[5]", "value": "is not a substrate [-]"}, {"measurement": "Activity", "setting": "[11]", "value": "is not an inhibitor [-]"}]}, {"molecule": "CCN(CC)CCNC(=O)c1ccc(N)cc1", "note": "[PROCAINAMIDE]", "values": [{"measurement": "activity at 1000 µM", "setting": "[12]", "value": 15.6, "unit": "%"}]}, {"molecule": "O=C(Cc1cccs1)N[C@@H]1C(=O)N2C(C(=O)[O-])=C(C[n+]3ccccc3)CS[C@H]12", "note": "[CEPHALORIDINE]", "values": [{"measurement": "activity at 1000 µM", "setting": "[13]", "value": 35.7, "unit": "%"}]}, {"molecule": "CC1COc2c(N3CCN(C)CC3)c(F)cc3c(=O)c(C(=O)O)cn1c23", "note": "(stereo unspecified) [OFLOXACIN]", "values": [{"measurement": "activity at 1000 µM", "setting": "[14]", "value": 61.4, "unit": "%"}]}, {"molecule": "NCCCCNCCCN", "note": "[SPERMIDINE]", "values": [{"measurement": "Activity", "setting": "[15]", "value": "is not an inhibitor [-]"}]}, {"molecule": "COc1ccc(CN(CCN(C)C)c2ccccn2)cc1", "note": "[PYRILAMINE]", "values": [{"measurement": "Activity", "setting": "[5]", "value": "substrate [+]"}, {"measurement": "activity at 1000 µM", "setting": "[16]", "value": 0, "unit": "%"}]}, {"molecule": "C=C[C@H]1C[N@@]2CC[C@H]1C[C@H]2[C@H](O)c1ccnc2ccc(OC)cc12", "note": "[QUININE]", "values": [{"measurement": "Activity", "setting": "[17]", "value": 24.6, "unit": "%"}]}, {"molecule": "C[N+](C)(C)CC(O)CC(=O)[O-]", "note": "(stereo unspecified) [CARNITINE]", "values": [{"measurement": "Activity", "setting": "[5]", "value": "substrate [+]"}, {"measurement": "activity at 1000 µM", "setting": "[18]", "value": 32.5, "unit": "%"}]}, {"molecule": "C[C@H]1COc2c(N3CCN(C)CC3)c(F)cc3c(=O)c(C(=O)O)cn1c23.C[C@H]1COc2c(N3CCN(C)CC3)c(F)cc3c(=O)c(C(=O)O)cn1c23.O", "note": "[LEVOFLOXACIN]", "values": [{"measurement": "Activity", "setting": "[19]", "value": 63.6, "unit": "%"}]}, {"molecule": "COc1ccc(CCN(C)CCCC(C#N)(c2ccc(OC)c(OC)c2)C(C)C)cc1OC", "note": "(stereo unspecified)", "values": [{"measurement": "Activity", "setting": "[5]", "value": "substrate [+]"}, {"measurement": "activity at 1000 µM", "setting": "[20]", "value": 8.8, "unit": "%"}]}, {"molecule": "CNC(=O)c1cccnc1", "note": "[NICOTINYL METHYLAMIDE]", "values": [{"measurement": "Activity", "setting": "[21]", "value": "is not an inhibitor [-]"}]}, {"molecule": "B1", "values": [{"measurement": "Km", "setting": "[22]", "value": 436, "unit": "µM"}]}]}
